Results reported in patent publication US9029377B2, “Platelet-activating factor receptor antagonists” (Merck Sharp & Dohme Corp., priority 2009, dated 2015).

Target: PAFR (Homo sapiens, UniProt P25105)
Experiment: PAF Binding Assay (PAFR binding)

Chain of PAFR (P25105 whole entry): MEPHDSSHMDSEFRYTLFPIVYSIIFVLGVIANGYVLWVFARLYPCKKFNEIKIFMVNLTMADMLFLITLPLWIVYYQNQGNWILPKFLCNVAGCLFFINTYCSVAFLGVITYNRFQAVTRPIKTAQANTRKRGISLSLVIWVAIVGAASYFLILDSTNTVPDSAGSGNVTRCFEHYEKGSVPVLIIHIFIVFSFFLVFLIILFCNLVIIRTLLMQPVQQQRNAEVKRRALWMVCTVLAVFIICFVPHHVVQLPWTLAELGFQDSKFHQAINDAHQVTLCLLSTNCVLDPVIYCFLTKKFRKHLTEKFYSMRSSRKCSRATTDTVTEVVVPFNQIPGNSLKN

IC50 | Molecule
22 nM | Cc1nncn1[C@@H]1CCC[C@H](NS(=O)(=O)c2ccc(-c3noc(C4CC4)n3)cc2F)C1 [Compound 2Ja, 4-(5-cyclopropyl-1,2,4-oxadiazol-3-yl)-2-fluoro-N-[(1S,3R)-3-(3-methyl-4H-1,2,4-triazol-4-yl)cyclohexyl]benzenesulfonamide]
0.8 nM | CCc1cc(-c2noc(C3CC3)n2)ccc1S(=O)(=O)N[C@@H]1C[C@H](n2cnnc2C)CC(F)(F)C1 [Compound 2Cbb, 4-(5-cyclopropyl-1,2,4-oxadiazol-3-yl)-N-[(1R,5S)-3,3-difluoro-5-(3-methyl-4H-1,2,4-triazol-4-yl)cyclohexyl]-2-ethylbenzenesulfonamide]
6.3 nM | O=S(=O)(N[C@H]1CCC[C@@H](n2cnnc2C2CC2)C1)c1ccc(-c2noc(C3CC(F)(F)C3)n2)cc1OC(F)(F)F [Compound 2Bd, N-[(1S,3R)-3-(3-cycloropyl-4H-1,2,4-triazol-4-yl)cyclohexyl]-4-[5-(3,3-difluorocyclobutyl)-1,2,4-oxadiazol-3-yl]-2-(trifluoromethoxy)benzenesulfonamide]
4.9 nM | O=S(=O)(N[C@H]1CCC[C@@H](n2cnnc2)C1)c1cc(-c2ccccc2OC(F)(F)F)cc(C(F)(F)F)c1 [Compound 3Am, N-[(1S,3R)-3-(4H-1,2,4-triazol-4-yl)cyclohexyl]-2′-(trifluoromethoxy)-5-(trifluoromethyl)biphenyl-3-sulfonamide]
8.6 nM | O=S(=O)(N[C@H]1CCC[C@@H](n2cnnc2)C1)c1c(F)cc(-c2noc(C3CC3)n2)cc1C1CC1 [Compound 2Sa, 2-cyclopropyl-4-(5-cyclopropyl-1,2,4-oxadiazol-3-yl)-6-fluoro-N-[(1S,3R)-3-(4H-1,2,4-triazol-4-yl)cyclohexyl]benzenesulfonamide]
30 nM | CCc1cc(-c2ccc(OC(F)(F)F)cc2C)ccc1S(=O)(=O)N[C@H]1CCC[C@@H](n2cnnc2)C1 [Compound 2Abl, 3-ethyl-2′-methyl-N-[(1S,3R)-3-(4H-1,2,4-triazol-4-yl)cyclohexyl]-4′-(trifluoromethoxy)biphenyl-4-sulfonamide]
18 nM | O=S(=O)(N[C@H]1CCC[C@@H](n2cnnc2)C1)c1cc(-c2ccc3nc(C(F)(F)F)nn3n2)cc(C(F)(F)F)c1 [Compound 3Aah, N-[(1S,3R)-3-(4H-1,2,4-triazol-4-yl)cyclohexyl]-3-(trifluoromethyl)-5-[2-(trifluoromethyl)[1,2,4]triazolo[1,5-b]pyridazin-6-yl]benzenesulfonamide]
0.5 nM | CCc1cc(-c2ccc(OC(C)C)nc2)ccc1S(=O)(=O)N[C@H]1CCC[C@@H](n2cnnc2C)C1 [Compound 2Abc, 2-ethyl-4-(6-isopropoxypyridin-3-yl)-N-[(1S,3R)-3-(3-methyl-4H-1,2,4-triazol-4-yl)cyclohexyl]benzenesulfonamide]
7 nM | O=S(=O)(N[C@H]1CCC[C@@H](n2cnnc2)C1)c1cc(-c2cccc3ccsc23)cc(C(F)(F)F)c1 [Compound 3Aq, 3-(1-benzothien-7-yl)-N-[(1S,3R)-3-(4H-1,2,4-triazol-4-yl)cyclohexyl]-5-(trifluoromethyl)benzenesulfonamide]
194 nM | O=S(=O)(N[C@H]1CCC[C@@H](n2cnnc2)C1)c1cc(Cl)cc(Cl)c1 [2 Mh, 3,5-dichloro-N-[(1S,3R)-3-(4H-1,2,4-triazol-4-yl)cyclohexyl]benzenesulfonamide]
30 nM | O=S(=O)(N[C@H]1CCC[C@@H](n2cnnc2)C1)c1cccc(-c2ccccc2)c1 [Compound 2Mg, N-[(1S,3R)-3-(4H-1,2,4-triazol-4-yl)cyclohexyl]biphenyl-3-sulfonamide]

Molecule | IC50
3-(2-aminopyrimidin-4-yl)-N-[(1R,5S)-3,3-difluoro-5-(3-methyl-4H-1,2,4-triazol-4-yl)cyclohexyl]-5-(trifluoromethyl)benzenesulfonamide [Compound 9Ab] | 15 nM
